Reference: the kinase profiling compilation of Christmann-Franck et al. (2016)

Experiments:
Assay in all cases: KINOMEscan competition binding
Conditions in all cases: compound 10.0 µM
CDK15 (human) = CDK15 (human) (UniProt Q96Q40)
PIP5K1A (human) = PIP5K1A (human) (UniProt Q99755)
MAPK15 (human) = MAPK15 (human) (UniProt Q8TD08)
DYRK1B (human) = DYRK1B (human) (UniProt Q9Y463)
ZAP70 (human) = ZAP70 (human) (UniProt P43403)
SIK2 (human) = SIK2 (human) (UniProt Q9H0K1)
ACVR1 (human) = ACVR1 (human) (UniProt Q04771)
[1] = test system: KIT (human), P10721 [D816H]
WEE2 (human) = WEE2 (human) (UniProt P0C1S8)
PRKD1 (human) = PRKD1 (human) (UniProt Q15139)
MAPK12 (human) = MAPK12 (human) (UniProt P53778)
OXSR1 (human) = OXSR1 (human) (UniProt O95747)
MAP2K6 (human) = MAP2K6 (human) (UniProt P52564)
[2] = target: JAK3 JH1 catalytic (human) (UniProt P52333)
CLK4 (human) = CLK4 (human) (UniProt Q9HAZ1)
PRKX (human) = PRKX (human) (UniProt P51817)
NEK1 (human) = NEK1 (human) (UniProt Q96PY6)
[3] = target: JAK1 JH2 pseudokinase (human) (UniProt P23458)
AKT1 (human) = AKT1 (human) (UniProt P31749)
MET (human) = MET (human) (UniProt P08581)
MTOR (human) = MTOR (human) (UniProt P42345)
LCK (human) = LCK (human) (UniProt P06239)
CDK4 CCND1 (human) = CDK4 CCND1 (human) (UniProt P11802+P24385)
FRK (human) = FRK (human) (UniProt P42685)
MAPKAPK2 (human) = MAPKAPK2 (human) (UniProt P49137)
TNK2 (human) = TNK2 (human) (UniProt Q07912)
RPS6KA4 KD1 (human) = RPS6KA4 KD1 (human) (UniProt O75676)
FES (human) = FES (human) (UniProt P07332)
RPS6KA1 KD1 (human) = RPS6KA1 KD1 (human) (UniProt Q15418)
MAP3K9 (human) = MAP3K9 (human) (UniProt P80192)
MAPK14 (human) = MAPK14 (human) (UniProt Q16539)
MAPK13 (human) = MAPK13 (human) (UniProt O15264)
CDK17 (human) = CDK17 (human) (UniProt Q00537)
EPHA3 (human) = EPHA3 (human) (UniProt P29320)
ROCK2 (human) = ROCK2 (human) (UniProt O75116)
IRAK1 (human) = IRAK1 (human) (UniProt P51617)
MAP4K4 (human) = MAP4K4 (human) (UniProt O95819)
PRKCI (human) = PRKCI (human) (UniProt P41743)
STK39 (human) = STK39 (human) (UniProt Q9UEW8)
PIK3CD (human) = PIK3CD (human) (UniProt O00329)
STK35 (human) = STK35 (human) (UniProt Q8TDR2)

Chain of MAPK13 (human) (O15264 whole entry, looked up): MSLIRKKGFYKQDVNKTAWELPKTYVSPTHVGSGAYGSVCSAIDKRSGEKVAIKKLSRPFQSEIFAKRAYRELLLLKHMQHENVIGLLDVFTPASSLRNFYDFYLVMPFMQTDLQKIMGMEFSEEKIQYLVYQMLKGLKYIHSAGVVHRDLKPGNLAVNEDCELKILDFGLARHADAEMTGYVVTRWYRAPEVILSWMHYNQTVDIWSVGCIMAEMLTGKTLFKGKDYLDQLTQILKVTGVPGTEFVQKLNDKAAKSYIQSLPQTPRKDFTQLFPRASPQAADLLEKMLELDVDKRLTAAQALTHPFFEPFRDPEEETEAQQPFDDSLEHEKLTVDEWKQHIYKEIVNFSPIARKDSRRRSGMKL
Chain of MAP2K6 (human) (P52564 whole entry, looked up): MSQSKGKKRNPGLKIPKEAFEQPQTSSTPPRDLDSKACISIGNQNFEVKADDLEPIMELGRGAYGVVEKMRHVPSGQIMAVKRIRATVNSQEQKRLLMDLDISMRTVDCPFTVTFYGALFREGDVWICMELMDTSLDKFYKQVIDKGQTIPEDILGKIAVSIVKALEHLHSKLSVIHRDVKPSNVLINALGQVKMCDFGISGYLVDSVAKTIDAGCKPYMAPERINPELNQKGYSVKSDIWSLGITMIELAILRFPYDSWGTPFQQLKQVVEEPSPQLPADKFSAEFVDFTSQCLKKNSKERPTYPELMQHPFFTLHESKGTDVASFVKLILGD
Chain of LCK (human) (P06239 whole entry, looked up): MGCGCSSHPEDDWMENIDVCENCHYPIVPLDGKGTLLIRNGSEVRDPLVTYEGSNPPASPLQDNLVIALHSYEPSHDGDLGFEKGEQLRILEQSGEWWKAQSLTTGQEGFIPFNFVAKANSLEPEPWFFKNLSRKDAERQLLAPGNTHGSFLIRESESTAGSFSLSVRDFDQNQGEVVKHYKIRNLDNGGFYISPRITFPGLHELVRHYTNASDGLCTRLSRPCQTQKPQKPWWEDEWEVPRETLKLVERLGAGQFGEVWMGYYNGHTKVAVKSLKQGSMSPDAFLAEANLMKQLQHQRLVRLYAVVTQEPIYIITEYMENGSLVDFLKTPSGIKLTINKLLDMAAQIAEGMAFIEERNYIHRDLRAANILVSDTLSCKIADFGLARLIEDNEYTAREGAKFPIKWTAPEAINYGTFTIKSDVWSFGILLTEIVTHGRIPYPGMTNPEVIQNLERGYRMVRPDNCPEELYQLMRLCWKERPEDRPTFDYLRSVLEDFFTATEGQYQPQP
Chain of MAPK12 (human) (P53778 whole entry, looked up): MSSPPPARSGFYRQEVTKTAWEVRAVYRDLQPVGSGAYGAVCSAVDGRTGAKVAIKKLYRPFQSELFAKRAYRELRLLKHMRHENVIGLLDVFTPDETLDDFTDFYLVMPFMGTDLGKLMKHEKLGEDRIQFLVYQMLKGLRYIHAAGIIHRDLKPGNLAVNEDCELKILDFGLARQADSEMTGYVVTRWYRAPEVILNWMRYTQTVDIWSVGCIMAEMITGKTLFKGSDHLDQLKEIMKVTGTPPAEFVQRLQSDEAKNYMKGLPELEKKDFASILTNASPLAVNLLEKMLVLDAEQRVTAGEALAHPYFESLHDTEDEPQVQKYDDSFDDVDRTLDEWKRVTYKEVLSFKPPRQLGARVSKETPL
Chain of JAK1 JH2 pseudokinase (human) (P23458 whole entry, looked up): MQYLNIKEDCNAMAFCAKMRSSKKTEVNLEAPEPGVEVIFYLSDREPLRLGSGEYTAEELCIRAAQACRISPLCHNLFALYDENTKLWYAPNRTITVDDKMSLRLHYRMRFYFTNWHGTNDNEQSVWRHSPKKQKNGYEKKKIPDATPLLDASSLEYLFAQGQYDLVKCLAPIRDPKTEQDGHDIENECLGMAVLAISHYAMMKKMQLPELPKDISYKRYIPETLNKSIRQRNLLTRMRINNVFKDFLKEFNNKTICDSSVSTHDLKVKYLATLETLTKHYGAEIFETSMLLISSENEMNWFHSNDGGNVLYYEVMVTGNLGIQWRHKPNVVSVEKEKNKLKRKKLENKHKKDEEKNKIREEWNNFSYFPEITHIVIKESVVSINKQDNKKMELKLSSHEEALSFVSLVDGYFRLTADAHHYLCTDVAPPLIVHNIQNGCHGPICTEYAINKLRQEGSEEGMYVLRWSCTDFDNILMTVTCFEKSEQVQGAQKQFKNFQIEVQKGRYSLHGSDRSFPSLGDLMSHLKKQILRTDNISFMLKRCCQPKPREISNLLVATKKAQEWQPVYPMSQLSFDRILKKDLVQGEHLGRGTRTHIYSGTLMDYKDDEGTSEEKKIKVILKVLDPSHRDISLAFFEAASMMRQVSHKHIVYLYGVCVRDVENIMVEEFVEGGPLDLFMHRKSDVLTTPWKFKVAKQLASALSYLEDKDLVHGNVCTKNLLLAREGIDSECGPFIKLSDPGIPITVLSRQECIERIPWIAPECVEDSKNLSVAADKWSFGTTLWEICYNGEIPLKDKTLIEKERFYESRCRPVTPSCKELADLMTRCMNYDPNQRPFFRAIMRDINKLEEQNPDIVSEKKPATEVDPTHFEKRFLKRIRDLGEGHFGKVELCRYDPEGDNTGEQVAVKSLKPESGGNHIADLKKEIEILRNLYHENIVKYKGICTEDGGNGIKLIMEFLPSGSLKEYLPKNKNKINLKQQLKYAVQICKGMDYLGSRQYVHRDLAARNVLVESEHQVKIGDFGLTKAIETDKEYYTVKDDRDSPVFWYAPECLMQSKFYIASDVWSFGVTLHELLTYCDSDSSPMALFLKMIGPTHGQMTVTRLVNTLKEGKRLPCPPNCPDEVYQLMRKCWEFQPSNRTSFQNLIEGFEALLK
Chain of MAPKAPK2 (human) (P49137 whole entry, looked up): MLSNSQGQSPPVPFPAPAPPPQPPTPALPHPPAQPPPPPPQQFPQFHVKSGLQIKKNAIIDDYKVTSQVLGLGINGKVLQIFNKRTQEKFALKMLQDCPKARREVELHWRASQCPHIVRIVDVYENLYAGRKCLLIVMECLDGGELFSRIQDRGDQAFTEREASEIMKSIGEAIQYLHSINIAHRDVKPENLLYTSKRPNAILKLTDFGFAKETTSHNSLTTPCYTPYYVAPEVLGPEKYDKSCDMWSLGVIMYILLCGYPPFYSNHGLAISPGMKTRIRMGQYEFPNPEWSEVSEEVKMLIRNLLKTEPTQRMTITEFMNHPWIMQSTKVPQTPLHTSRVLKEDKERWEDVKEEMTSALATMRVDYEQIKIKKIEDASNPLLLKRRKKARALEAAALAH
Chain of ACVR1 (human) (Q04771 whole entry, looked up): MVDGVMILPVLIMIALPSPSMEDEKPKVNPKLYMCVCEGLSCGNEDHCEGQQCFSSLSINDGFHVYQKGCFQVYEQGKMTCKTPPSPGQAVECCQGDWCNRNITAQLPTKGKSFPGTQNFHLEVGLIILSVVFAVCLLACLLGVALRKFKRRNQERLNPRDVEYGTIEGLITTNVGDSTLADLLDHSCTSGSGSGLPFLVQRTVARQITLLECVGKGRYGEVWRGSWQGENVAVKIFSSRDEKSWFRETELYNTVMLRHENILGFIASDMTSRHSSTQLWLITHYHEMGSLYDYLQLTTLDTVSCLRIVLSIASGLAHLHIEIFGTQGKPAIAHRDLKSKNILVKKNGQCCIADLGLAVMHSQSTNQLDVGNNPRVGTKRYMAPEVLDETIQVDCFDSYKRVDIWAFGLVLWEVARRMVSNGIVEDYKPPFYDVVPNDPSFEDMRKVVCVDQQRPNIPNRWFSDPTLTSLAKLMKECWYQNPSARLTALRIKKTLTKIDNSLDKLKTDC
Chain of JAK3 JH1 catalytic (human) (P52333 whole entry, looked up): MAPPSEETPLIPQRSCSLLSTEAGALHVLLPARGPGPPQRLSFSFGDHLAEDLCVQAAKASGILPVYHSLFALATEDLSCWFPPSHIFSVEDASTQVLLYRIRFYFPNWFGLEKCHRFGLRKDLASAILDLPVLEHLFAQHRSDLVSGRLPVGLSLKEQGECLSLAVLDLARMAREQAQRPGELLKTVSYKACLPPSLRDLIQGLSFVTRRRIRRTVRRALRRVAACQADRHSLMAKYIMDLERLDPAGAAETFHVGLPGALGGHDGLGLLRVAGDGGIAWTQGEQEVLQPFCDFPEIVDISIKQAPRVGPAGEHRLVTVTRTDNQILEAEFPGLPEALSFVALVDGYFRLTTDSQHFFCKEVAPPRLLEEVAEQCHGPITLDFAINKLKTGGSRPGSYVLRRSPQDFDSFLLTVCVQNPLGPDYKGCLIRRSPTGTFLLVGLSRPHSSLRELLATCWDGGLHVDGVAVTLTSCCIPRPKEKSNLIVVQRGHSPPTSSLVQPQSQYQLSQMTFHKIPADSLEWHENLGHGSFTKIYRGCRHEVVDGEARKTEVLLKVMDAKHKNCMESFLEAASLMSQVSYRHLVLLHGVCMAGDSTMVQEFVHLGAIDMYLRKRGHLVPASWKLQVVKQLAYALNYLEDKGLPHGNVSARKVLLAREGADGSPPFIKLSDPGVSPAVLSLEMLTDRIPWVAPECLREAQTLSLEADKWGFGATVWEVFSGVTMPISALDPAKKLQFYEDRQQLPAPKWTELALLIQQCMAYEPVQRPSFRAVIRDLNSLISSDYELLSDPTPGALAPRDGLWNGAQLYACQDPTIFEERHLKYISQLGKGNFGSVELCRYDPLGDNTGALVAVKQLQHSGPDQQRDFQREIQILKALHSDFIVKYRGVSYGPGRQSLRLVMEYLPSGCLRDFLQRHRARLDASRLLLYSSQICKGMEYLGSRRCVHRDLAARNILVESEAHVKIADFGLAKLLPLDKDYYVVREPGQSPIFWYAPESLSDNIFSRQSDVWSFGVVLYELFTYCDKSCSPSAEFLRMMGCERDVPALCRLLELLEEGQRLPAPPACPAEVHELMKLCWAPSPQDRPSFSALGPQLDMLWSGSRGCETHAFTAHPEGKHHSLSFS

Row | Compound | per cent of control (CDK15 (human)) [%] | kinase still bound, per cent of control (PIP5K1A (human)) [%] | kinase still bound, per cent of control (MAPK15 (human)) [%] | kinase still bound, per cent of control (DYRK1B (human)) [%] | kinase still bound, per cent of control (ZAP70 (human)) [%] | kinase still bound, per cent of control (SIK2 (human)) [%] | kinase still bound, per cent of control (ACVR1 (human)) [%] | kinase still bound, per cent of control (WEE2 (human)) [%] | kinase still bound, per cent of control (PRKD1 (human)) [%] | kinase still bound, per cent of control (MAPK12 (human)) [%] | kinase still bound, per cent of control (OXSR1 (human)) [%] | kinase still bound, per cent of control (MAP2K6 (human)) [%] | kinase still bound, per cent of control [2] [%] | kinase still bound, per cent of control (CLK4 (human)) [%] | kinase still bound, per cent of control (PRKX (human)) [%] | kinase still bound, per cent of control (NEK1 (human)) [%] | kinase still bound, per cent of control [3] [%] | kinase still bound, per cent of control (AKT1 (human)) [%] | kinase still bound, per cent of control (LCK (human)) [%] | per cent of control (CDK4 CCND1 (human)) [%] | further results
1 | CC(C)n1nc(-c2cc3cc(O)ccc3[nH]2)c2c(N)ncnc21 | 96 | 62 | 54 | 59 | 99 | 9.4 | 0.1 | 100 | 100 | 59 | 80 | 70 | 0 | 9.7 | 100 | 61 | 0.2 | 100 | 0.95 | 60 | kinase still bound, per cent of control [1]: 16%; kinase still bound, per cent of control (MET (human)): 73%; kinase still bound, per cent of control (MTOR (human)): 0%; kinase still bound, per cent of control (FRK (human)): 12%; kinase still bound, per cent of control (MAPKAPK2 (human)): 100%; kinase still bound, per cent of control (TNK2 (human)): 48%; kinase still bound, per cent of control (RPS6KA4 KD1 (human)): 100%; kinase still bound, per cent of control (FES (human)): 100%; kinase still bound, per cent of control (RPS6KA1 KD1 (human)): 32%; kinase still bound, per cent of control (MAP3K9 (human)): 32%; kinase still bound, per cent of control (MAPK14 (human)): 95%; kinase still bound, per cent of control (MAPK13 (human)): 97%; per cent of control (CDK17 (human)): 100%; kinase still bound, per cent of control (EPHA3 (human)): 1.5%; kinase still bound, per cent of control (ROCK2 (human)): 60%; kinase still bound, per cent of control (IRAK1 (human)): 25%; kinase still bound, per cent of control (MAP4K4 (human)): 38%; kinase still bound, per cent of control (PRKCI (human)): 52%; per cent of control (STK39 (human)): 97%
2 | COC(=O)Nc1ccc(-c2nc(N3CCOCC3)c3cnn(C4CCN(C(=O)OC)CC4)c3n2)cc1 | 100 | 98 | 100 | 93 | 98 | 100 | 100 | 95 | 95 | 0 | 90 | 90 | 100 | 94 | 100 | 77 | 74 | 82 | 88 | 100 | kinase still bound, per cent of control [1]: 75%; kinase still bound, per cent of control (PIK3CD (human)): 40%; kinase still bound, per cent of control (MTOR (human)): 0%; kinase still bound, per cent of control (STK35 (human)): 91%; kinase still bound, per cent of control (FRK (human)): 99%; kinase still bound, per cent of control (MAPKAPK2 (human)): 100%; kinase still bound, per cent of control (TNK2 (human)): 100%; kinase still bound, per cent of control (RPS6KA4 KD1 (human)): 94%; kinase still bound, per cent of control (FES (human)): 100%; kinase still bound, per cent of control (RPS6KA1 KD1 (human)): 100%; kinase still bound, per cent of control (MAP3K9 (human)): 100%; kinase still bound, per cent of control (MAPK14 (human)): 80%; kinase still bound, per cent of control (MAPK13 (human)): 0%; per cent of control (CDK17 (human)): 100%; kinase still bound, per cent of control (EPHA3 (human)): 84%; kinase still bound, per cent of control (ROCK2 (human)): 79%; kinase still bound, per cent of control (IRAK1 (human)): 100%; kinase still bound, per cent of control (MAP4K4 (human)): 88%; kinase still bound, per cent of control (PRKCI (human)): 100%; per cent of control (STK39 (human)): 67%
3 | CCC(=O)N1CCN(c2ccc(-n3c(=O)ccc4cnc5ccc(-c6cnc7ccccc7c6)cc5c43)cc2C(F)(F)F)CC1 | 88 | 89 | 79 | 87 | 100 | 23 | 28 | 100 | 99 | 71 | 100 | 100 | 100 | 49 | 83 | 89 | 76 | 91 | 77 | 100 | kinase still bound, per cent of control (PIK3CD (human)): 51%; kinase still bound, per cent of control (MET (human)): 84%; kinase still bound, per cent of control (STK35 (human)): 18%; kinase still bound, per cent of control (FRK (human)): 60%; kinase still bound, per cent of control (MAPKAPK2 (human)): 100%; kinase still bound, per cent of control (TNK2 (human)): 51%; kinase still bound, per cent of control (RPS6KA4 KD1 (human)): 100%; kinase still bound, per cent of control (FES (human)): 41%; kinase still bound, per cent of control (RPS6KA1 KD1 (human)): 68%; kinase still bound, per cent of control (MAP3K9 (human)): 84%; kinase still bound, per cent of control (MAPK14 (human)): 90%; kinase still bound, per cent of control (MAPK13 (human)): 39%; per cent of control (CDK17 (human)): 97%; kinase still bound, per cent of control (EPHA3 (human)): 70%; kinase still bound, per cent of control (ROCK2 (human)): 50%; kinase still bound, per cent of control (IRAK1 (human)): 100%; kinase still bound, per cent of control (MAP4K4 (human)): 5.2%; kinase still bound, per cent of control (PRKCI (human)): 85%; per cent of control (STK39 (human)): 100%
